In the supplement of paper PMC10949913:
Structures can show the parent of a compound that is named as a salt. ± gives the standard deviation of the averaged measurements.

Legend:
CU-ACC1 = assay: ExcessHSA synergy score with TAK-243; higher = less synergy (negative = synergistic); conditions: combined with: TAK-243 (MLN-7243) matrix, 9-point 1:2 dilution
Procedure: (§1)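 Each drug was tested at 9 points with 1:2 dilution; viability was read by CellTiter-Glo as in the single-agent screen. Synergy is scored as ExcessHSA (sum of excess over highest single agent; negative = synergy) and the Beta interaction parameter (<1 synergy).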

NCI-H295R = assay: as above; conditions: combined with: TAK-243 (MLN-7243) matrix, 9-point 1:2 dilution
Procedure: as §1

Row | Structure (SMILES) | ExcessHSA synergy score with TAK-243 (CU-ACC1) | ExcessHSA synergy score with TAK-243 (NCI-H295R)
1 | CC1(C)CCC2(CC1)N[C@@H](C(=O)N[C@@H]1CC[C@@H](C(N)=O)OC1)[C@H](c1ccnc(Cl)c1F)[C@]21C(=O)Nc2cc(Cl)ccc21 [Milademetan] | -380 | -111
2 | COc1c(OCCCN2CCOCC2)ccc2c3n(c(=NC(=O)c4cnc(N)nc4)nc12)CCN3 [Copanlisib] | 70.4 | 87
3 | Cc1cnc(CNC(=O)c2c(=O)c3ccc(N4CCCN(C)CC4)nc3n3c2sc2ccccc23)cn1 [CX-5461] | 210 | 895
4 | O=C(N[C@@H](Cc1coc2ccccc12)B(O)O)[C@@H]1C[C@H]2CC[C@@H]1O2 [LMP7-IN-1] | -335 | -55.7
5 | Cc1nc(=O)c2cc(CN(C)c3ccc(C(=O)N[C@@H](CCC(=O)O)C(=O)O)s3)ccc2[nH]1 [Raltitrexed] | -398 | -54.1
6 | CC(C)NC[C@@H](C(=O)N1CCN(c2ncnc3c2[C@H](C)C[C@H]3O)CC1)c1ccc(Cl)cc1 [Ipatasertib] | 85.6 | -60.3
7 | O=C(Nc1ccnc(C(F)(F)F)c1)c1cnn(-c2cccc3c(=O)[nH]ccc23)c1C(F)(F)F | -300 | -544
8 | O=C(c1cc(-c2cc3c(cc2C(=O)N2Cc4ccccc4CC2CN2CCOCC2)OCO3)n2c1CCCC2)N(c1ccccc1)c1ccc(O)cc1 (stereo unspecified) | -937 | -903
9 | CCCCCCCCc1ccc(CCC(N)(CO)CO)cc1 [Fingolimod hydrochloride] | -48.2 | 127
10 | CS(=O)(=O)c1ccc(Oc2cc(F)cc(C#N)c2)c2c1[C@H](O)[C@H](F)[C@@H]2F [PT-2977] | 217 | 801
11 | CSC[C@H]1CN(Cc2c[nH]c3c(N)ncnc23)C[C@@H]1O [MT-DADMe-ImmA] | -323 | 422
12 | O=C1CC[C@H](N2Cc3c(OCc4ccc(CN5CCOCC5)cc4)cccc3C2=O)C(=O)N1 [Iberdomide] | 393 | 1110
13 | Cc1ccc(NC(=O)NCc2ccc3c(c2)CN(C2CCC(=O)NC2=O)C3=O)cc1Cl (stereo unspecified) [CC-885] | 356 | 370
14 | C=CCNC1=C2C[C@@H](C)C[C@H](OC)[C@H](O)[C@@H](C)/C=C(\C)[C@H](OC(N)=O)[C@@H](OC)/C=C\C=C(/C)C(=O)NC(=CC1=O)C2=O [17-AAG] | 421 | -251
15 | COc1cc2c(c(OC)n1)[C@]1(O)[C@H](O)[C@H](CN(C)C)[C@@H](c3ccccc3)[C@]1(c1ccc(C#N)cc1)O2 [Zotatifin] | 1170 | 686
16 | COc1ncnc(C2CC2)c1-c1ncc2cnn(Cc3ccc(-c4nc(C(F)(F)F)cn4C(C)C)cc3)c2n1 [KSQ-4279] | -545 | -796
17 | Cc1[nH]c2ccc(F)cc2c1-c1nc2c3cccnc3c3ncccc3c2[nH]1 [APTO-253] | 410 | 586
18 | CNCc1ccc(-c2cc(-c3nc(-c4ccc(S(=O)(=O)C(C)C)cc4)cnc3N)on2)cc1 [Berzosertib] | -219 | 144
19 | NC(=O)/C(=C/n1cnc(-c2cc(C(F)(F)F)cc(C(F)(F)F)c2)n1)c1cncnc1 [Eltanexor] | -817 | -429
20 | Nc1ccn([C@@H]2O[C@H](CO)[C@@H](O)C2(F)F)c(=O)n1 [Gemcitabine] | -457 | 236
21 | O=C(NCc1ccc(S(=O)(=O)c2cccc(C(F)(F)F)c2)cc1)c1cnc2[nH]ncc2c1 [GNE-618] | -406 | -555
22 | CC(C)C[C@H](NC(=O)[C@H](CCc1ccccc1)NC(=O)CN1CCOCC1)C(=O)N[C@@H](Cc1ccccc1)C(=O)N[C@@H](CC(C)C)C(=O)[C@@]1(C)CO1 [Carfilzomib] | -949 | -675
23 | C#CCC(Cc1cnc2nc(N)nc(N)c2n1)c1ccc(C(=O)N[C@@H](CCC(=O)O)C(=O)O)cc1 (stereo partly specified) [Pralatrexate] | 137 | -57.8
24 | CN(Cc1cnc2nc(N)nc(N)c2n1)c1ccc(C(=O)N[C@@H](CCC(=O)O)C(=O)O)cc1 [Methotrexate] | 544 | 591
25 | Cc1cc(F)c(C(=O)Nc2cccc(-c3nncn3C(C)C)n2)cc1-n1cnc(C2CC2)c1 [Selonsertib] | 496 | 231
26 | Cc1cc2c(C(N)=O)cccc2n1-c1nc2c(c(NCc3ccccc3)n1)COCC2 [CB-5083] | -143 | 71.1
27 | O=C1NC(=O)C(c2cnc3ccccn23)=C1c1cn2c3c(cc(F)cc13)CN(C(=O)N1CCCCC1)CC2 | 432 | 305

Row | Structure (SMILES) | ExcessHSA synergy score with TAK-243 (CU-ACC1) | ExcessHSA synergy score with TAK-243 (NCI-H295R)
28 | C[C@@H]1CN(Cc2ccc(F)cc2)[C@@H](C)CN1C(=O)c1cc2c(C(=O)C(=O)N(C)C)cn(C)c2cc1Cl [Talmapimod] | 218 | 657
29 | CNC(=O)Nc1ccc2c(c1)CC[C@@]21OC(=O)N(CC(=O)N(Cc2ccc(F)cc2)[C@@H](C)C(F)(F)F)C1=O [A-485] | 305 | 334
30 | N[C@H]1CC[C@H](N[C@@H]2C[C@H]2c2ccccc2)CC1 [ORY-1001] | -384 | -493
31 | Nc1ncnc2c1ncn2C(C=O)OC(C=O)CO (stereo unspecified) [Adenosine Dialdehyde] | 349 | 712
32 | Nc1nc(OCc2ccccc2)c2nc[nH]c2n1 [O6-Benzylguanine] | -248 | 45.7
33 | COc1ccc(C(=O)N2CCN(c3ccc4c(c3)CCC(=O)N4)CC2)cc1OC [Vesnarinone] | 628 | 706
34 | CC(=O)N1CCC(Nc2cc(C(=O)NC[C@H](O)CN3CCc4ccccc4C3)ncn2)CC1 | 517 | 649
35 | Nc1c(C(=O)c2ccccc2)sc2[nH]c(=O)c(C(=O)O)cc12 | -23.4 | -51.1
36 | CC1(C)CCC(c2ccc(Cl)cc2)=C(CN2CCN(c3ccc(C(=O)NS(=O)(=O)c4ccc(N[C@H](CCN5CCOCC5)CSc5ccccc5)c(S(=O)(=O)C(F)(F)F)c4)cc3)CC2)C1 [Navitoclax] | -563 | -505
37 | Cc1nc(-c2nc(-c3ccc(OC(F)(F)F)cc3)no2)nn1Cc1cccc(N2CCC(S(C)(=O)=O)CC2)c1 | 422 | 691
38 | CC1(C)CCC(CN2CCN(c3ccc(C(=O)NS(=O)(=O)c4ccc(NCC5CCOCC5)c([N+](=O)[O-])c4)c(Oc4cnc5[nH]ccc5c4)c3)CC2)=C(c2ccc(Cl)cc2)C1 [Venetoclax (ABT-199)] | -249 | -424
39 | CNC(=O)c1ccc(Nc2ncc(C(F)(F)F)c(NCc3nccnc3N(C)S(C)(=O)=O)n2)cc1 [Defactinib] | 223 | 245
40 | Cc1[nH]c2ccccc2c1CCNCc1ccc(/C=C/C(=O)NO)cc1 [Panobinostat] | 181 | -23.3
41 | CCOC(=O)[C@@H](N)CCC(=O)N[C@@H](CSCc1ccccc1)C(=O)N[C@@H](C(=O)OCC)c1ccccc1 [Ezatiostat] | -271 | -222
42 | COc1cc2c(cc1-c1c(C)noc1C)cc(C)c(=O)n2Cc1ccccn1 [ODM-207] | 182 | -3.62
43 | O=C(O)CNC(=O)c1ncc(-c2cccc(Cl)c2)cc1O | -199 | 289
44 | CCOC(=O)c1ccc(C#Cc2ccc3c(c2)C(C)(C)CCS3)nc1 [Tazarotene] | 230 | 136
45 | CCN(C(=O)c1cc(F)ccc1Oc1cncnc1N1CC2(CCN(C[C@H]3CC[C@H](NS(=O)(=O)CC)CC3)CC2)C1)C(C)C [SNDX-5613] | -82.8 | 50
46 | COC1CCC(n2c([C@@H]3CCCC(=O)N3c3ccc(F)c(F)c3)nc3cc(-c4c(C)noc4C)ccc32)CC1 (stereo partly specified) [CBP/p300-IN-4] | -96.9 | -244
47 | O=C(CCCCCCNC(=O)c1cnc(N(c2ccccc2)c2ccccc2Cl)nc1)NO [Citarinostat (ACY-241)] | -47.7 | -290
48 | Cc1nc2ccc(F)cc2n1-c1nc(N)c(F)c(Nc2ccc(C(F)(F)F)cc2)n1 [PTC596] | -119 | -3.1
49 | Cc1cccc(CC(=O)N2CCc3c2ccc(-c2cn(C)c4ncnc(N)c24)c3F)n1 | -151 | 173
50 | CNC(=O)c1cccc(-c2ccc3c(N4CCOC[C@@H]4C)nc(N4CCOC[C@@H]4C)nc3n2)c1 [Vistusertib] | -211 ± 410 | -549 ± 350
51 | Cc1cc(C(=O)CN2CCCCC2)c(C)n1-c1ccc(Cl)cc1 [IU1-47] | -58.7 | 125
52 | Nc1cccc2c1CN(C1CCC(=O)NC1=O)C2=O (stereo unspecified) [Lenalidomide] | 337 | 364
53 | NS(=O)(=O)OC[C@@H]1C[C@@H](n2ccc3c(N[C@H]4CCc5ccccc54)ncnc32)C[C@@H]1O [MLN-4924] | -111 | -344
